Data published in article PMC5226424 (Biochemistry, 2016).

Target: T1, carboxyltransferase from S. aureus (SaCT) (Staphylococcus aureus, UniProt Q2FXM7+Q5HF73)
T1 sequence (Q2FXM7 1-314): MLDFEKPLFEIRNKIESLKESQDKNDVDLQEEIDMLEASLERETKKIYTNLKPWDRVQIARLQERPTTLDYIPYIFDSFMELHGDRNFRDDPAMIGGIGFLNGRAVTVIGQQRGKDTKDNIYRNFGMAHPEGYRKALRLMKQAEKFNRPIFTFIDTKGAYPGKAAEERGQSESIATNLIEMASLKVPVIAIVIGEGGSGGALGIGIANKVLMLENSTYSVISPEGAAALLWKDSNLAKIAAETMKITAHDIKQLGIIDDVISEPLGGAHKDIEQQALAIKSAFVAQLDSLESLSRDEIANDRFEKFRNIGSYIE
T1 sequence (Q5HF73 1-285): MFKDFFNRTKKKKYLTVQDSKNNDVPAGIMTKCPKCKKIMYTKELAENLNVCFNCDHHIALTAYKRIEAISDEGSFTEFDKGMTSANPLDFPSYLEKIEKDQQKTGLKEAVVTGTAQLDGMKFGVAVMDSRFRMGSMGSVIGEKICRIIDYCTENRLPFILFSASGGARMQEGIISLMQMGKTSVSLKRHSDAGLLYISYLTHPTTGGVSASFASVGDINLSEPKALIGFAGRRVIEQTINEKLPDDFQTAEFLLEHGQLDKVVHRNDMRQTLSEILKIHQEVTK
Experiment: coupled citrate synthase / malate dehydrogenase assay at […] nm, reverse direction
Assay type: biochemical
Conditions: 150 μM malonyl-CoA, 6 mM biocytin, pH 8.0

## C[C@H]1CC(=O)NC1=O [compound 4, (3S)-Methyl-pyrrolidine-2,5-dione]
  % decrease in activity at 50 nM: 65%
